From US7238697B2, “Pyridylpyrimidines for use as pesticides” (Bayer CropScience AG, priority 2001, dated 2007) come the findings set out here.

The structures appear in SMILES notation.

The first data set is described as follows: log P determination by HPLC (reversed-phase C18), EEC Directive 79/831 Annex V.A8. Type of data set: physicochemical. The settings on record: pH 2.3; HPLC, reversed-phase C 18, 43° C., 0.1% aqueous phosphoric acid/acetonitrile; read-out: log P (pH 2.3). The procedure:
The stated log P values were determined in accordance with EEC Directive 79/831 Annex V.A8 by HPLC (High Performance Liquid Chromatography) using a reversed-phase column, (C 18). Temperature: 43° C. Mobile phases for the determination in the acidic range: 0.1% aqueous phosphoric acid, acetonitrile; linear gradient from 10% acetonitrile to 90% acetonitrile. Calibration was carried out using unbranched alkan-2-ones (having 3 to 16 carbon atoms) with known logP values (determination of the logP values by the retention times using linear interpolation between two successive alkanones).
With `CCOC(=O)NCc1nccc(-c2ccccn2)n1` [Example 8, ethyl [4-(2-pyridinyl)-2-pyrimidinyl]methylcarbamate], the chromatographic logP was 1.14.

Staying with this data set, now noted: reversed-phase C18 HPLC column; pH 2.3; HPLC, reversed-phase C 18, 43° C., 0.1% aqueous phosphoric acid/acetonitrile; read-out: log P (pH 2.3).
In the case of `CS(=O)(=O)c1nccc(-c2ccccn2)n1` [2-(methylsulphonyl)-4-(2-pyridinyl)pyrimidine], the chromatographic logP amounted to 0.99.

Take `CSc1nccc(-c2ccccn2)n1` [2-(methylthio)-4-(2-pyridinyl)pyrimidine]: the chromatographic logP came to 1.93.

For `CC(C)OC(=O)CSc1nccc(-c2ccccn2)n1` [Example 1, isopropyl {[4-(2-pyridinyl)-2-pyrimidinyl]thio}-acetate], the chromatographic logP turned out to be 2.56.

Consider `CCOC(=O)C(C)Sc1nccc(-c2ccccn2)n1` (stereo not drawn) [Example 2, ethyl-2-{[4-(2-pyridinyl)-2-pyrimidinyl]thio}-propanoate], for which the chromatographic logP worked out at 2.74.

As to `CN(C(=O)CSc1nccc(-c2ccccn2)n1)c1ccc(Cl)cc1` [Example 3, N-(4-chlorophenyl)-N-methyl-2-{[4-(2-pyridinyl)-2-pyrimidinyl]thio}acetamide], the chromatographic logP came out at 2.73.

As for `CCOC(=O)CSc1nc(C)cc(-c2ccccn2)n1` [Example 4, ethyl {[4-methyl-6-(2-pyridinyl)-2-pyrimidinyl]thio}acetate], the chromatographic logP is 2.45.

As for `CCOC(=O)CNc1nccc(-c2ccccn2)n1` [Example 5, ethyl N-(4-(2-pyridinyl)-2-pyrimidinyl]glycinate], the chromatographic logP was 1.14.

As to `CCOC(=O)CN(C)c1nccc(-c2ccccn2)n1` [Example 6, ethyl N-methyl-N-[4-(2-pyridinyl)-2-pyrimidinyl]glycinate], the chromatographic logP stood at 1.66.

On to `CCOC(=O)COc1nccc(-c2ccccn2)n1` [Example 7, ethyl {[4-(2-pyridinyl)-2-pyrimidinyl]oxy}acetate], for which the chromatographic logP is 1.73.

In the case of `COC(=O)CSc1nccc(-c2ccccn2)n1` [Example 10], the chromatographic logP is 1.81.

Consider `O=C(O)CSc1nccc(-c2ccccn2)n1` [Example 11], for which the chromatographic logP amounted to 1.14.

In the case of `COC(=O)CS(=O)(=O)c1nccc(-c2ccccn2)n1` [Example 12], the chromatographic logP turned out to be 1.37.

As to `CCOC(=O)CSc1nccc(-c2ccccn2)n1` [Example 13], the chromatographic logP amounted to 2.17.

With `COC(=O)CC(=O)CSc1nccc(-c2ccccn2)n1` [Example 14], the chromatographic logP was 1.76.

On to `O=C(CSc1nccc(-c2ccccn2)n1)Oc1ccccc1` [Example 15], for which the chromatographic logP came out at 2.88.

On to `CCCOC(=O)CSc1nccc(-c2ccccn2)n1` [Example 16], for which the chromatographic logP amounted to 2.76.

As for `C=COC(=O)CSc1nccc(-c2ccccn2)n1` [Example 17], the chromatographic logP stood at 2.37.

Take `C=CCOC(=O)CSc1nccc(-c2ccccn2)n1` [Example 18]: the chromatographic logP worked out at 2.4.

Take `O=C(CSc1nccc(-c2ccccn2)n1)OCc1ccccc1` [Example 19]: the chromatographic logP was found to be 2.99.

For `COCCOC(=O)CSc1nccc(-c2ccccn2)n1` [Example 20], the chromatographic logP was 1.97.

On to `O=C(CSc1nccc(-c2ccccn2)n1)OC1CCCCC1` [Example 21], for which the chromatographic logP is 3.53.

With `CCOC(=O)C(C)OC(=O)CSc1nccc(-c2ccccn2)n1` (stereo not drawn) [Example 22], the chromatographic logP came out at 2.58.

Regarding `COC(=O)C(Sc1nccc(-c2ccccn2)n1)C(C)=O` (stereo not drawn) [Example 23], the chromatographic logP amounted to 2.34.

As to `COC(=O)C(Sc1nccc(-c2ccccn2)n1)C(=O)OC` [Example 24], the chromatographic logP was 2.16.

As for `CCC(Sc1nccc(-c2ccccn2)n1)C(=O)OC` (stereo not drawn) [Example 25], the chromatographic logP was determined as 2.68.

For the compound `COC(=O)C(Sc1nccc(-c2ccccn2)n1)c1ccccc1` (stereo not drawn) [Example 26], the chromatographic logP came out at 3.5.

`COC(=O)C(Cc1cccc(Cl)c1)Sc1nccc(-c2ccccn2)n1` (stereo not drawn) [Example 27]: the chromatographic logP worked out at 3.84.

Consider `CCN(CC)C(=O)CSc1nccc(-c2ccccn2)n1` [Example 28], for which the chromatographic logP worked out at 1.8.

As for `NC(=O)CSc1nccc(-c2ccccn2)n1` [Example 29], the chromatographic logP is 0.69.

Take `CCOC(=O)/C=C/CSc1nccc(-c2ccccn2)n1` [Example 30]: the chromatographic logP is 2.92.

Turning to `COC(=O)/C=C(/CSc1nccc(-c2ccccn2)n1)OC` [Example 31], the chromatographic logP came out at 2.7.

On to `CC(C)CNC(=O)CSc1nccc(-c2ccccn2)n1` [Example 32], for which the chromatographic logP came to 1.81.

On to `O=C(CSc1nccc(-c2ccccn2)n1)Nc1ccc(Cl)cc1` [Example 33], for which the chromatographic logP stood at 2.58.

`COC(=O)/C(O)=C\c1nccc(-c2ccccn2)n1` [Example 34]: the chromatographic logP amounted to 1.89.

On to `CC(C)(C)OC(=O)CSc1nccc(-c2ccccn2)n1` [Example 35], for which the chromatographic logP came out at 2.96.

Turning to `O=C(CSc1nccc(-c2ccccn2)n1)NO` [Example 36], the chromatographic logP was determined as 0.55.

`O=C(CSc1nccc(-c2ccccn2)n1)NCc1ccc(SC(F)(F)F)cc1` [Example 37]: the chromatographic logP came to 2.93.

For the compound `O=C(CSc1nccc(-c2ccccn2)n1)NCCc1ccc(OC(F)(F)F)cc1` [Example 38], the chromatographic logP stood at 2.96.

With `O=C(CSc1nccc(-c2ccccn2)n1)NCc1ccccc1OC(F)(F)F` [Example 39], the chromatographic logP amounted to 2.72.

For `O=C(CSc1nccc(-c2ccccn2)n1)NCc1ccc(OC(F)(F)F)cc1` [Example 40], the chromatographic logP turned out to be 2.76.

In the case of `O=C(CSc1nccc(-c2ccccn2)n1)NCCc1ccc(Cl)cc1Cl` [Example 41], the chromatographic logP amounted to 2.83.

With `O=C(CSc1nccc(-c2ccccn2)n1)NCCc1cccc(C(F)(F)F)c1` [Example 42], the chromatographic logP came out at 2.82.

On to `CC(NC(=O)CSc1nccc(-c2ccccn2)n1)c1ccc(C(C)(C)C)cc1` (stereo not drawn) [Example 43], for which the chromatographic logP was 3.4.

Regarding `O=C(CSc1nccc(-c2ccccn2)n1)NCc1ccc(Cl)c(Cl)c1` [Example 44], the chromatographic logP worked out at 2.64.

Turning to `O=C(CSc1nccc(-c2ccccn2)n1)NCc1ccc(Cl)cc1Cl` [Example 45], the chromatographic logP came out at 2.69.

With `O=C(CSc1nccc(-c2ccccn2)n1)NCc1cccc(C(F)(F)F)c1` [Example 46], the chromatographic logP amounted to 2.62.

Regarding `O=C(CSc1nccc(-c2ccccn2)n1)NCc1ccc(C(F)(F)F)cc1` [Example 47], the chromatographic logP is 2.64.

Turning to `O=C(CSc1nccc(-c2ccccn2)n1)NCc1ccc(F)c(Cl)c1` [Example 48], the chromatographic logP came to 2.42.

In the case of `CN(Cc1ccc(Cl)nc1)C(=O)CSc1nccc(-c2ccccn2)n1` [Example 49], the chromatographic logP stood at 2.01.

`CC(NC(=O)CSc1nccc(-c2ccccn2)n1)c1ccc(Cl)cc1` (stereo not drawn) [Example 50]: the chromatographic logP came out at 2.58.

Consider `O=C(CSc1nccc(-c2ccccn2)n1)NCCc1ccc(Cl)cc1` [Example 51], for which the chromatographic logP turned out to be 2.58.

Regarding `O=C(CSc1nccc(-c2ccccn2)n1)NCc1ccc2c(c1)OCO2` [Example 52], the chromatographic logP is 1.94.

For `O=C(CSc1nccc(-c2ccccn2)n1)NCc1ccc(Cl)nc1` [Example 53], the chromatographic logP worked out at 1.71.

Consider `O=C(CSc1nccc(-c2ccccn2)n1)NCc1ccc(Cl)cc1` [Example 54], for which the chromatographic logP is 2.38.

As for `COc1ccc(CNC(=O)CSc2nccc(-c3ccccn3)n2)cc1` [Example 55], the chromatographic logP is 2.

Take `Cc1ccc(CCNC(=O)CSc2nccc(-c3ccccn3)n2)cc1` [Example 56]: the chromatographic logP is 2.56.

As to `Cc1ccc(C(C)NC(=O)CSc2nccc(-c3ccccn3)n2)cc1` (stereo not drawn) [Example 57], the chromatographic logP was 2.48.

For the compound `CC(C)N1CCN(C(=O)CSc2nccc(-c3ccccn3)n2)CC1` [Example 58], the chromatographic logP amounted to 0.95.

`Cc1cccc(CNC(=O)CSc2nccc(-c3ccccn3)n2)c1` [Example 59]: the chromatographic logP came out at 2.29.

In the case of `CC1CN(C(=O)CSc2nccc(-c3ccccn3)n2)CC(C)O1` (stereo not drawn) [Example 60], the chromatographic logP worked out at 1.94.

For the compound `CN(C(=O)CSc1nccc(-c2ccccn2)n1)C1CCCCC1` [Example 61], the chromatographic logP was 2.67.

For the compound `O=C(CSc1nccc(-c2ccccn2)n1)NCc1ccccn1` [Example 62], the chromatographic logP was determined as 1.14.

With `O=C(CSc1nccc(-c2ccccn2)n1)NC1CCCCC1` [Example 63], the chromatographic logP was determined as 2.31.

On to `O=C(CSc1nccc(-c2ccccn2)n1)NCc1ccco1` [Example 64], for which the chromatographic logP was determined as 1.82.

Regarding `O=C(CSc1nccc(-c2ccccn2)n1)N1CCOCC1` [Example 65], the chromatographic logP was 1.55.

Take `O=C(CSc1nccc(-c2ccccn2)n1)N1CCCCC1` [Example 66]: the chromatographic logP worked out at 2.09.

On to `O=C(CSc1nccc(-c2ccccn2)n1)NCC1CC1` [Example 67], for which the chromatographic logP turned out to be 1.83.

`O=C(CSc1nccc(-c2ccccn2)n1)N1CCCC1` [Example 68]: the chromatographic logP is 1.75.

Regarding `O=C(CSc1nccc(-c2ccccn2)n1)NC1CC1` [Example 69], the chromatographic logP is 1.56.

Regarding `C=CCNC(=O)CSc1nccc(-c2ccccn2)n1` [Example 70], the chromatographic logP was 1.65.

Take `COC(=O)CCCSc1nccc(-c2ccccn2)n1` [Example 76]: the chromatographic logP was 2.35.

Turning to `COC(=O)CSc1nc(-c2ccccn2)c2cc(Cl)ccc2n1` [Example 77], the chromatographic logP amounted to 3.46.

In the case of `COC(=O)CCSc1nccc(-c2ccccn2)n1` [Example 78], the chromatographic logP was determined as 2.13.

For the compound `COC(=O)CCCCSc1nccc(-c2ccccn2)n1` [Example 79], the chromatographic logP came to 2.68.
